Measurements reported in patent US12479843B2, “Spiro ring-containing quinazoline compounds” (WIGEN BIOMEDICINE TECHNOLOGY (SHANGHAI) CO., LTD., priority 2019, dated 2025).

Assays:
H358 cells = test: Antiproliferative activity against H358 cells (Cell Titer Glow, ultra-low attachment plate); assay type: cell-based; details: Homo sapiens, NCI-H358, 72 h, 96-well ultra-low attachment plate, three days after addition of compound, Cell Titer Glow
Procedure: 2500 H358 cells were seeded in a 96-well ultra-low attachment plate (corning, 7007). After one day of growth, a serially diluted compound (a maximum concentration of 5 μM, 5-fold dilution, a total of five doses) was added. Three days after the addition of the compound, Cell Titer Glow (Promega, G9681) was added to evaluate pellet growth, and the IC50 value was calculated.

pERK level in H358 cells = test: pERK and ERK protein content assay in H358 cells (ELISA); assay type: cell-based; details: Homo sapiens, NCI-H358, compound 1 μM, 24 h, pERK/ERK ratio compared with DMSO group, read-out: Inhibition rate (%) of pERK level
Procedure: H358 cells were seeded in a 24-well plate. After one day of growth, a test compound (at a concentration of 1 μM) was added. After 24 h of action of the compound, the cells were lysed, and the cell lysate was transferred to a 96-well ELISA plate. The levels of pERK and ERK in the lysate were measured using an ELISA kit (abcam 176660). The ratio of pERK to ERK was calculated and compared with that of the DMSO group, and the percentage of inhibition of pERK activity by the compound was calculated.

| SMILES | IC50 (H358 cells) [nM] | inhibition at 1 µM (pERK level in H358 cells) [%] |
| --- | --- | --- |
| C=C(F)C(=O)N1CC2(CCN(c3nc(OC4CCN(CCOC)CC4)nc4c(OCC(F)(F)F)c(-c5c(O)cccc5F)c(C5CC5)cc34)CC2)C1 [Compound 46] | < 300 | > 90 |
| C=CC(=O)N1CC2(CCN(c3nc(OC4CCN(CCOC)CC4)nc4c(OCC(F)(F)F)c(-c5c(N)cccc5F)c(C5CC5)cc34)CC2)C1 [Compound 47] | < 300 | > 90 |
| C=C(F)C(=O)N1CC2(CCN(c3nc(OC4CCN(CCOC)CC4)nc4c(OCC(F)(F)F)c(-c5c(N)cccc5F)c(C5CC5)cc34)CC2)C1 [Compound 48] | 300 to 1000 | > 90 |
| C=CC(=O)N1CC2(CCN(c3nc(OC4CCN(CCOC)CC4)nc4c(OCC(F)(F)F)c(-c5c(N)c(Cl)cc(Cl)c5F)c(C5CC5)cc34)CC2)C1 [Compound 49] | < 300 | > 90 |
| C=C(F)C(=O)N1CC2(CCN(c3nc(OC4CCN(CCOC)CC4)nc4c(OCC(F)(F)F)c(-c5c(N)c(Cl)cc(Cl)c5F)c(C5CC5)cc34)CC2)C1 [Compound 50] | < 300 | > 90 |
| C=CC(=O)N1CC2(CCN(c3nc(OC4CCN(CCOC)CC4)nc4c(OCC(F)(F)F)c(-c5ccccc5F)c(C5CC5)cc34)CC2)C1 [Compound 51] | < 300 | > 90 |
| C=C(F)C(=O)N1CC2(CCN(c3nc(OC4CCN(CCOC)CC4)nc4c(OCC(F)(F)F)c(-c5ccccc5F)c(C5CC5)cc34)CC2)C1 [Compound 52] | < 300 | > 90 |
| C=CC(=O)N1CC2(CCN(c3nc(OC4CCN(CCOC)CC4)nc4c(OCC(F)(F)F)c(-c5c(F)cccc5F)c(C5CC5)cc34)CC2)C1 [Compound 53] | < 300 | > 90 |
| C=C(F)C(=O)N1CC2(CCN(c3nc(OC4CCN(CCOC)CC4)nc4c(OCC(F)(F)F)c(-c5c(F)cccc5F)c(C5CC5)cc34)CC2)C1 [Compound 54] | < 300 | > 90 |
| C=CC(=O)N1CC2(CCN(c3nc(OC4CCN(CCOC)CC4)nc4c(OCC(F)(F)F)c(-c5ccccc5C(F)(F)F)c(C5CC5)cc34)CC2)C1 [Compound 55] | < 300 | > 90 |
| C=CC(=O)N1CC2(CCN(c3nc(OC4CCN(CCOC)CC4)nc4c(OCC(F)(F)F)c(-c5ccc(F)cc5F)c(C5CC5)cc34)CC2)C1 [Compound 56] | < 300 | > 90 |
| C=CC(=O)N1CC2(CCN(c3nc(OC4CCN(CCOC)CC4)nc4c(OCC(F)(F)F)c(-c5cc(O)ccc5F)c(C5CC5)cc34)CC2)C1 [Compound 57] | < 300 | > 90 |
| C=CC(=O)N1CC2(CCN(c3nc(OC4CCN(CCOC)CC4)nc4c(OCC(F)(F)F)c(-c5cc(O)ccc5Cl)c(C5CC5)cc34)CC2)C1 [Compound 58] | < 300 | > 90 |
| C=CC(=O)N1CC2(CCN(c3nc(OC4CCN(CCOC)CC4)nc4c(OCC(F)(F)F)c(-c5c(O)ccc6ccccc56)c(C5CC5)cc34)CC2)C1 [Compound 59] | < 300 | > 90 |
| C=CC(=O)N1CC2(CCN(c3nc(OC4CCN(CCOC)CC4)nc4c(OCC(F)(F)F)c(-c5cc(O)cc6ccccc56)c(C5CC5)cc34)CC2)C1 [Compound 60] | < 300 | > 90 |
| C=C(F)C(=O)N1CC2(CCN(c3nc(OC4CCN(C)CC4)nc4c(OCC(F)(F)F)c(-c5c(C)ccc6[nH]ncc56)c(C5CC5)cc34)CC2)C1 [Compound 61] | < 300 | > 90 |
| C=C(F)C(=O)N1CC2(CCN(c3nc(OC4CCN(C5COC5)CC4)nc4c(OCC(F)(F)F)c(-c5c(C)ccc6[nH]ncc56)c(C5CC5)cc34)CC2)C1 [Compound 62] | < 300 | > 90 |
| C=C(F)C(=O)N1CC2(CCN(c3nc(OC4CCN(CCCOC)CC4)nc4c(OCC(F)(F)F)c(-c5c(C)ccc6[nH]ncc56)c(C5CC5)cc34)CC2)C1 [Compound 63] | < 300 | > 90 |
| C=C(F)C(=O)N1CC2(CCN(c3nc(O[C@H]4CCN(C)C4)nc4c(OCC(F)(F)F)c(-c5c(C)ccc6[nH]ncc56)c(C5CC5)cc34)CC2)C1 [Compound 64] | 300 to 1000 | 50 to 90 |
| C=C(F)C(=O)N1CC2(CCN(c3nc(O[C@H]4CCN(CCOC)C4)nc4c(OCC(F)(F)F)c(-c5c(C)ccc6[nH]ncc56)c(C5CC5)cc34)CC2)C1 [Compound 65] | < 300 | > 90 |
| C=C(F)C(=O)N1CC2(CCN(c3nc(O[C@H]4CCN(C5COC5)C4)nc4c(OCC(F)(F)F)c(-c5c(C)ccc6[nH]ncc56)c(C5CC5)cc34)CC2)C1 [Compound 66] | 300 to 1000 | 50 to 90 |

| SMILES | IC50 (H358 cells) [nM] | inhibition at 1 µM (pERK level in H358 cells) [%] |
| --- | --- | --- |
| C=CC(=O)N1CC2(CCN(c3nc(N4CC5(COC5)C4)nc4c(OCC(F)(F)F)c(-c5c(C)ccc6[nH]ncc56)c(C5CC5)cc34)CC2)C1 [Compound 67] | 300 to 1000 | 50 to 90 |
| C=C(F)C(=O)N1CC2(CCN(c3nc(N4CC5(COC5)C4)nc4c(OCC(F)(F)F)c(-c5c(C)ccc6[nH]ncc56)c(C5CC5)cc34)CC2)C1 [Compound 68] | 300 to 1000 | 50 to 90 |
| C=CC(=O)N1CC2(CCN(c3nc(N4CC5(CN(C)C5)C4)nc4c(OCC(F)(F)F)c(-c5c(C)ccc6[nH]ncc56)c(C5CC5)cc34)CC2)C1 [Compound 69] | < 300 | > 90 |
| C=C(F)C(=O)N1CC2(CCN(c3nc(N4CC5(CN(C)C5)C4)nc4c(OCC(F)(F)F)c(-c5c(C)ccc6[nH]ncc56)c(C5CC5)cc34)CC2)C1 [Compound 70] | 300 to 1000 | > 90 |
| C=CC(=O)N1CC2(CCN(c3nc(N4CC5(CN(CCOC)C5)C4)nc4c(OCC(F)(F)F)c(-c5c(C)ccc6[nH]ncc56)c(C5CC5)cc34)CC2)C1 [Compound 71] | < 300 | > 90 |
| C=C(F)C(=O)N1CC2(CCN(c3nc(N4CC5(CN(CCOC)C5)C4)nc4c(OCC(F)(F)F)c(-c5c(C)ccc6[nH]ncc56)c(C5CC5)cc34)CC2)C1 [Compound 72] | < 300 | > 90 |
| C=CC(=O)N1CC2(CCN(c3nc(N4CC5(CCN(C)C5)C4)nc4c(OCC(F)(F)F)c(-c5c(C)ccc6[nH]ncc56)c(C5CC5)cc34)CC2)C1 [Compound 73] | < 300 | > 90 |
| C=C(F)C(=O)N1CC2(CCN(c3nc(N4CC5(CCN(C)C5)C4)nc4c(OCC(F)(F)F)c(-c5c(C)ccc6[nH]ncc56)c(C5CC5)cc34)CC2)C1 [Compound 74] | < 300 | > 90 |
| C=CC(=O)N1CC2(CCN(c3nc(N4CC5(CCN(CCOC)C5)C4)nc4c(OCC(F)(F)F)c(-c5c(C)ccc6[nH]ncc56)c(C5CC5)cc34)CC2)C1 [Compound 75] | < 300 | > 90 |
| C=C(F)C(=O)N1CC2(CCN(c3nc(N4CC5(CCN(CCOC)C5)C4)nc4c(OCC(F)(F)F)c(-c5c(C)ccc6[nH]ncc56)c(C5CC5)cc34)CC2)C1 [Compound 76] | < 300 | > 90 |
| C=CC(=O)N1CC2(CCN(c3nc(N4CC5(CCN(C)CC5)C4)nc4c(OCC(F)(F)F)c(-c5c(C)ccc6[nH]ncc56)c(C5CC5)cc34)CC2)C1 [Compound 77] | 300 to 1000 | 50 to 90 |
| C=C(F)C(=O)N1CC2(CCN(c3nc(N4CC5(CCN(C)CC5)C4)nc4c(OCC(F)(F)F)c(-c5c(C)ccc6[nH]ncc56)c(C5CC5)cc34)CC2)C1 [Compound 78] | 300 to 1000 | 50 to 90 |
| C=CC(=O)N1CC2(CCN(c3nc(N4CC5(CCN(C6CC6)CC5)C4)nc4c(OCC(F)(F)F)c(-c5c(C)ccc6[nH]ncc56)c(C5CC5)cc34)CC2)C1 [Compound 79] | 300 to 1000 | 50 to 90 |
| C=C(F)C(=O)N1CC2(CCN(c3nc(N4CC5(CCN(C6CC6)CC5)C4)nc4c(OCC(F)(F)F)c(-c5c(C)ccc6[nH]ncc56)c(C5CC5)cc34)CC2)C1 [Compound 80] | 300 to 1000 | 50 to 90 |
| C=CC(=O)N1CC2(CCN(c3nc(N4CC5(CCN(CC(C)CC)CC5)C4)nc4c(OCC(F)(F)F)c(-c5c(C)ccc6[nH]ncc56)c(C5CC5)cc34)CC2)C1 (stereo not drawn) [Compound 81] | < 300 | > 90 |
| C=C(F)C(=O)N1CC2(CCN(c3nc(N4CC5(CCN(CC(C)CC)CC5)C4)nc4c(OCC(F)(F)F)c(-c5c(C)ccc6[nH]ncc56)c(C5CC5)cc34)CC2)C1 (stereo not drawn) [Compound 82] | < 300 | > 90 |
| C=CC(=O)N1CC2(CCN(c3nc(N4CC5(CCN(CC6CC6)CC5)C4)nc4c(OCC(F)(F)F)c(-c5c(C)ccc6[nH]ncc56)c(C5CC5)cc34)CC2)C1 [Compound 83] | < 300 | > 90 |
| C=C(F)C(=O)N1CC2(CCN(c3nc(N4CC5(CCN(CC6CC6)CC5)C4)nc4c(OCC(F)(F)F)c(-c5c(C)ccc6[nH]ncc56)c(C5CC5)cc34)CC2)C1 [Compound 84] | < 300 | > 90 |
| C=CC(=O)N1CC2(CCN(c3nc(N4CC5(CCN(CC(F)(F)F)CC5)C4)nc4c(OCC(F)(F)F)c(-c5c(C)ccc6[nH]ncc56)c(C5CC5)cc34)CC2)C1 [Compound 85] | 300 to 1000 | > 90 |
| C=C(F)C(=O)N1CC2(CCN(c3nc(N4CC5(CCN(CC(F)(F)F)CC5)C4)nc4c(OCC(F)(F)F)c(-c5c(C)ccc6[nH]ncc56)c(C5CC5)cc34)CC2)C1 [Compound 86] | 300 to 1000 | 50 to 90 |
| C=CC(=O)N1CC2(CCN(c3nc(N4CC5(CCN(CCC#N)CC5)C4)nc4c(OCC(F)(F)F)c(-c5c(C)ccc6[nH]ncc56)c(C5CC5)cc34)CC2)C1 [Compound 87] | < 300 | > 90 |
